# Values quoted from earlier work, collected in US20100136089A1, “LOCATION OF FATTY ACID ESTERS ON TAMPONS AND TOXIN […]” (priority 2008, published 2010).
# System: humans
# Conditions: stated as known
compound,measurement,value
"CCCCCCCCCCCC(=O)OCC(O)CO (stereo not shown) [GML, glycerol monolaurate]",toxicity to humans,non toxic to humans
